Here are results for one substance from patent publication US20210401931A1, “METHODS AND MATERIALS FOR TREATING CANCER” (Mayo Foundation for Medical Education and Research, priority 2018, published 2021).

Ends that are not written are not given here.

One test has as its target T1, p65-N (Homo sapiens, UniProt Q04206).
T1 construct: made in house
Kind of test: In vitro protein binding assay of RL peptide with GST-p65-N. Conditions: compared to phosphorylation-resistant mutant.

The next test deals with PD-L1. Kind of test: PD-L1 expression in cell lines of other cancer types (PANC-1, H1299, SK-Hep1) expressing RL peptide. Conditions: listed as RL-S249/T252D peptide. Type of test: cell-based, human. As for the experimental part:
FIGS. 12A-C. (A, B) PANC-1, H1299, and SK-Hep1 were infected with lentivirus expressing control or RB-specific shRNAs following puromycin selection. 48 hours post infection, cells were transfected with indicated construct. 24 hours after transfection, cells were harvested for western blotting (A) and RT-qPCR (B). All data were shown as mean values±SD (n=3). “ns”=not significant, *** P<0.001. (C) Western blot analysis of expression of PD-L1, RB, pRB-S249/T252, pRB-5795, and ERK2 in prostate cancer cell lines indicated.
Total RNA was isolated using TRIzol reagent (Thermo Fisher Scientific). The NanoDrop 2000 spectrophotometer (Thermo Fisher Scientific) was used to assess RNA yield and quality. RNA was reversely transcribed using Superscript reverse transcriptase (Thermo Fisher Scientific) following manufacturer's instructions. Quantitative real-time PCR was performed by mixing cDNA, gene-specific primers, and IQ SYRB Green Supermix and detected by iCycler QTX detection system (Bio-Rad). The 2-ΔCt method was used to quantitate fold changes by normalizing to GAPDH. Primers for RT-qPCR are provided Table 4.
Cells were harvested and lysed by IP buffer, and the supernatant was quantified by BCA protein quantification assay. Equal amounts of protein sample were added into 4× sample buffer and boiled for 5 minutes. […]

For the next test, the system named is PTEN-CaP8 tumors. Kind of test: FACS of tumor-infiltrating immune cells in PTEN-CaP8 tumors. In kind it is in vivo, mouse. Conditions: 12 Gy. As for the experimental part: FIGS. 6A-J. The small S249/T252 phosphorylation-mimicking polypeptide of RB blocks irradiation-induced PD-L1 expression and inhibits cancer immune evasion. (A, B) PC-3 cells were infected with lentivirus expressing control shRNA or p65-specific or shRNA. 24 hours after puromycin selection, cells were treated with or without gamma irradiation (IR) (12 Gy). 48 hours after IR treatment, cells were harvested for western blotting analysis (A) and RT-qPCR analysis (B). All data were shown as mean values±SD (n=3). * P<0.05, ** P<0.01, *** P<0.001. (C, D) PC-3 cells were treated with without gamma irradiation (12 Gy). Cells were harvested at the indicated time point for western blotting analysis (C) and RT-qPCR analysis (D). All data were shown as mean values±SD (n=3). * P<0.05, ** P<0.01, *** P<0.001. (E) Western blot analysis of WCL and co-IP samples in PC-3 cells 48 hours after treated with or without gamma irradiation (12 Gy). […] (J) The absolute number of CD45^+CD8^+ T cells, CD45^+CD4^+ T cells, and CD11b^+Gr1^+ myeloid cells of implanted PTEN-CaP8 in tumors treated with indicated agents was analyzed by FACS. […]
For flow cytometry analysis of mouse tissue samples, tumors were cut into small pieces and digested with 2 mg/mL collagenase (Sigma) in DMEM for 1 hour at 37° C. […] After incubated with antibody for 30 minutes, cells were washed with PBS and analyzed on a flow cytometer.

T1 sequence (Q04206 19-306 limits assumed): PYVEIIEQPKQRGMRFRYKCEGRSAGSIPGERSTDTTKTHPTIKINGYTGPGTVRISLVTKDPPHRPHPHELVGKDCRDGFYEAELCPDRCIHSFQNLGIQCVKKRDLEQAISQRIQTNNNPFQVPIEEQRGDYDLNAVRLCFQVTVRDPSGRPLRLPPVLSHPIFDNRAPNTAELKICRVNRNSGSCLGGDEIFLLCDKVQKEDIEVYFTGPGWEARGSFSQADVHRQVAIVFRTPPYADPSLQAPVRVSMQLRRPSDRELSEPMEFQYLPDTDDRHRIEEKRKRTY

For the substance “RL-S249D/T252D: S249/T252 phospho-mimicking R-Linker (RL) peptide: fragment of RB-N containing 21 amino acids surrounding S249/T252, expressed SFB-tagged or by lentivirus (NGDPRDPRRGQNRSARIAKQL; also: expressed SFB-tagged (tag left off))”, in the test with p65-N, the “binding of in vitro transcribed and translated RL peptide to p65-N” value was “much stronger”. Further, the “PD-L1 expression in cell lines of other cancer types” value in the test on PD-L1 is reported as “inhibited”. Moreover, in the test on PTEN-CaP8 tumors, the “CD11b+Gr1+ myeloid cells in tumors, agent combined with irradiation” value is listed as “sharp decrease”; the “CD45+CD8+ and CD45+CD4+ T cell infiltration in tumors, agent combined with irradiation” value is on record as “dramatic increase”.
